From patent US4870097A, “Pharmaceutical use of derivatives of tryptophan” (priority 1984, dated 1989)

Test system: analgesic activity of morphine
Assay: Tail Flick Test: increase in the analgesic effect of morphine
Assay type: in vivo, rats
Conditions: for M(10'-90') average percentage variation: mean 10'-90'
Procedure, shortened: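 Male non-fasted rats, 150-200 g; heat source (75 °C) on tail, latency to tail movement timed, 8 s cut-off. Measured before and 10, 20, 30, 45, 60, 90 min after analgesic dosing; percentage variation per animal, averaged over groups of five.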

[1] = compound 10 mg/kg i.p. + morphine 2 mg/kg (row Morphine: alone), ± S.E.
[2] = compound 10 mg/kg i.p. + morphine 2 mg/kg (row Morphine: alone)

Row | Compound | percentage variation in the latency of the pain sensation, 10' [1] [%] | percentage variation in the latency of the pain sensation, 20' [1] [%] | percentage variation in the latency of the pain sensation, 30' (30', compound 10 mg/kg i.p. + morphine 2 mg/kg (row Morphine: alone), ± S.E.) [%] | percentage variation in the latency of the pain sensation, 45' [1] [%] | percentage variation in the latency of the pain sensation, 60' [1] [%] | percentage variation in the latency of the pain sensation, 90' [1] [%] | M(10'-90') average percentage variation [2] [%] | Potency ratio relative to morphine alone (rat, in vivo) | percentage variation in the latency of the pain sensation, 30' (rat, in vivo)
1 | CCCCCCc1ccc(C(=O)N[C@@H](Cc2c[nH]c3ccccc23)C(=O)O)cc1 [Compound 26] | 100.0 ± 0.0 | 87.6 ± 9.2 | 100.0 ± 0.0 | 100.0 ± 0.0 | 100.0 ± 0.0 | 84.5 ± 9.8 | 96.3 | 3.2 | 
2 | O=C(N[C@@H](Cc1c[nH]c2ccccc12)C(=O)O)OC(c1ccccc1)c1ccccc1 [Compound 33] | 100.0 ± 0.0 | 87.6 ± 12.4 |  | 97.0 ± 3.0 | 65.7 ± 21.4 | 58.1 ± 21.7 | 82.9 | 2.78 | 89.2 ± 10.8
